Measurements: PMC8177097 (FEBS letters, 2020)

Columns and labels:
lipocalin Blc (wtBlc) [1] = target: T1, lipocalin Blc (wtBlc) (Escherichia coli, UniProt P0A901); experiment: spectrophotometric hemin titration; format: binding
T1 sequence (P0A901 19-177): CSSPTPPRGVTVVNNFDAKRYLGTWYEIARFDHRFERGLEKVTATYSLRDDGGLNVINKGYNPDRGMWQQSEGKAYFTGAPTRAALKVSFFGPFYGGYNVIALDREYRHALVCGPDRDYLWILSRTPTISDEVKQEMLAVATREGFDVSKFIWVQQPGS

lipocalin Blc (wtBlc) [2] = target: T1, lipocalin Blc (wtBlc); experiment: tryptophan fluorescence quenching titration; format: binding

Work on C=CC1=C(C)C2=Cc3c(C=C)c(C)c4[n]3[Fe][n]3c(c(C)c(CCC(=O)O)c3=CC3=NC(=C4)C(C)=C3CCC(=O)O)=CC1=N2 [heme] yielded a Kd (lipocalin Blc (wtBlc) [1]) of 1400 ± 300 nM.
CC1=C(CCC(=O)O)c2cc3[nH]c(cc4nc(cc5[nH]c(cc1n2)c(C)c5C(C)O)C(C)=C4C(C)O)c(C)c3CCC(=O)O (centres unmarked) [HP, hematoporphyrin] showed a Kd (lipocalin Blc (wtBlc) [2]) of 0.14 ± 0.1 nM.
